Source: patent US7649001B2
Substitutions are numbered along the chain they refer to.

What was measured:
[1] = test system: Human prostate cancer cell strain LNCaP-FGC; assay: cells; type: cell-based; conditions: 72 h, read-out: Promotion rate (%) on PSA production at 100 nM
[2] = target: T1, wild type androgen receptor (AR) (Homo sapiens, UniProt P10275); assay: AR-binding inhibition test (wild type); conditions: read-out: Inhibition rate (%) at 100 nM Wild type
T1 sequence (P10275 1-920): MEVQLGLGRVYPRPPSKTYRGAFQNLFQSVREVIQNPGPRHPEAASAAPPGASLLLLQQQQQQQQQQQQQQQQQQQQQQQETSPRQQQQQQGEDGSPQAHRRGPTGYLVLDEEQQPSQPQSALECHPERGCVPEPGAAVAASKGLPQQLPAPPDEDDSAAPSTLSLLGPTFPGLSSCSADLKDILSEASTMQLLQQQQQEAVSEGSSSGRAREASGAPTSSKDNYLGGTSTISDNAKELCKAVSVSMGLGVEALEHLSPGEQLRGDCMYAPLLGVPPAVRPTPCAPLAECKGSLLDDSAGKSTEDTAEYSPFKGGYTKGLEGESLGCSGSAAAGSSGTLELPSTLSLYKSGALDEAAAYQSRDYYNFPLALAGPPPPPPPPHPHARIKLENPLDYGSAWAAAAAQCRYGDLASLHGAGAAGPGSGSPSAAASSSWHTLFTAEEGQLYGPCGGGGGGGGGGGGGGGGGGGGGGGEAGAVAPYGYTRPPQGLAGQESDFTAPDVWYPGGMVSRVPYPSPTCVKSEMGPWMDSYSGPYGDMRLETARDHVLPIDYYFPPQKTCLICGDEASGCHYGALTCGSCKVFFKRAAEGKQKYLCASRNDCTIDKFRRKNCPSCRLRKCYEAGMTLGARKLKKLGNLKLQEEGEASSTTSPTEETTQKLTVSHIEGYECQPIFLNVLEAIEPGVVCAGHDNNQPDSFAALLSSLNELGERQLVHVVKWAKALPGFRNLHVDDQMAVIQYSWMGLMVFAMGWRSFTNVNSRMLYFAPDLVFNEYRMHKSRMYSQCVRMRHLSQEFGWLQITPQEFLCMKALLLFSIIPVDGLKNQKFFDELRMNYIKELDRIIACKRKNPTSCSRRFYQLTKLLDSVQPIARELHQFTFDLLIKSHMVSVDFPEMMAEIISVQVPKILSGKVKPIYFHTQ

[3] = target: T2, LNCaP type mutant androgen receptor (AR) (Homo sapiens, UniProt P10275, T878A); assay: AR-binding inhibition test (LNCaP type); conditions: read-out: Inhibition rate (%) at 100 nM LNCaP type
T2 sequence (P10275 1-920 T878A): T1 sequence (P10275 1-920) with T878A

SMILES | activation at 0.1 µM [1] [%] | melting point [°C] | inhibition at 0.1 µM [2] [%] | inhibition at 0.1 µM [3] [%]
C[C@H]1[C@H](O)CCN1c1ccc(C#N)c2sccc12 [Compound 115, 4-[(2S,3R)-3-hydroxy-2-methyl-1-pyrrolidinyl]-1-benzothiophene-7-carbonitrile] | 76 | 145 to 146 | 93 | 97
C[C@H]1C[C@@H](O)CN1c1ccc(C#N)c2sccc12 [Compound 109, 4-[(2S,4R)-4-hydroxy-2-methyl-1-pyrrolidinyl]-1-benzothiophene-7-carbonitrile] | 86 | 102 to 103 | 98 | 99
N#Cc1ccc(N2CCC(CCO)C2)c2ccsc12 (stereo not shown) [Compound 101, 4-[3-(2-hydroxyethyl)-1-pyrrolidinyl]-1-benzothiophene-7-carbonitrile] | 86 | 109 to 111 | 93 | 97
N#Cc1ccc(N2CCC(CO)CC2)c2ccccc12 [Compound 30, 4-[4-(hydroxymethyl)-1-piperidinyl]-1-naphthonitrile] | 100 | 135 to 136 | 105 | 113
N#Cc1ccc(N2CCC(F)C2)c2ccsc12 (stereo not shown) [Compound 100, 4-(3-fluoro-1-pyrrolidinyl)-1-benzothiophene-7-carbonitrile] | 82 | 151 to 152 | 97 | 92
N#Cc1ccc(N2CCSCC2)c2ccccc12 [Compound 8, 4-(4-thiomorpholinyl)-1-naphthonitrile] | 71 | 130 to 131 | 92 | 96
N#Cc1ccc(N2CCC(CCO)CC2)c2ccccc12 [Compound 78, 4-[4-(2-hydroxyethyl)-1-piperidinyl]-1-naphthonitrile] | 89 | 128 to 129 | 92 | 97
